Patent publication US7816384B2, “Method for treating a demyelinating condition” (priority 2000, dated 2010)

Key:
[1] = tested on: EAE; conditions: NBQX treatment in EAE; cited from earlier work
[2] = tested on: adoptive-transfer EAE in female SJL mice; test: Adoptive-transfer EAE, treatment with amlodipine (Example 1); assay type: in vivo, mouse; conditions: two representative animals per group at sampling; clinical index 0-5; control group 2.8
Method: FIG. 1 illustrates the clinical course of adoptive-transfer EAE and the effect of treatment with amlodipine. SJL mice were injected with 3×10^7 MBP-activated cells. Starting from Day 5 post-immunization, mice were treated with amlodipine (30 μg as one daily subcutaneous injection) or vehicle (PBS), until Day 13 (Day 9 of treatment). Data represent mean±s.e.m. differences, at respective time-points, between the vehicle-treated group and the amlodipine-treated group. *=p<0.05; **=p<0.01 (students' unpaired, two-tailed t-test); n=8 per group. Induction of Experimental Autoimmune Encephalomyelitis (EAE). Adoptive-transfer EAE was induced in female SJL mice as described ([…] et al., 1998). In brief, lymph node cells were obtained 10 days after myelin basic protein/Complete Freund's Adjuvant immunization. Cells were cultured for 4 days with 50 μg/ml of myelin basic protein, then 3×10^7 cells/mouse were injected into syngeneic mice via tail veins. Onset of disease occurred after 7-9 days. Animals were graded according to a standard clinical index (0-5). Five days after immunization, animals began treatments with one daily injection of 200 μl of vehicle (PBS), or 30 μg of amlodipine in 200 μl of PBS. Neuropathology. At selected time-points, mice from the control and treated groups were perfused with PBS or glutaraldehyde, and the CNS was prepared for frozen or 1-μm epoxy sections, respectively. […]

[3] = tested on: AT-EAE in female SJL/J mice; test: Adoptive-transfer EAE (AT-EAE), treatment with bepridil or nitrendipine (Example 2); assay type: in vivo, mouse; conditions: for difference in average disease scores between vehicle and bepridil groups: bepridil 3 mg/kg from day 3 p.t. (n=14 vs 15); for average difference in disease scores vs vehicle: average over days 13-20 p.t.
[4] = bepridil 3 mg/kg s.c. daily from day 0

## NS(=O)(=O)c1cccc2c1c([N+](=O)[O-])cc1[nH]c(=O)c(=O)[nH]c12 [NBQX, 1,2,3,4-tetrahydro-6-nitro-2,3-dioxo-benzoquinoxaline-7-sulfonamide]
[1]
  course of disease, loss of oligodendrocytes and axonal damage: significantly ameliorated the course of the disease and reduced loss of oligodendrocytes and axonal damage

## CCOC(=O)C1=C(COCCN)NC(C)=C(C(=O)OC)C1c1ccccc1Cl (stereo not shown) [amlodipine, 3-ethyl-5-methyl-2-(2-aminoethoxymethyl)-4-(2-chlorophenyl)-1,4-dihydro-6-methyl-3,5-pyridinedicarboxylate]
[2]
  average clinical score: 1.3

## CC(C)COCC(CN(Cc1ccccc1)c1ccccc1)N1CCCC1 (stereo not shown) [bepridil]
[3]; day 13 p.t.
  difference in average disease scores between vehicle and bepridil groups: 1.07 points
[3]; day 14 p.t.
  difference in average disease scores between vehicle and bepridil groups: 1.20 points
[3]; day 15 p.t.
  difference in average disease scores between vehicle and bepridil groups: 0.99 points
[3]; day 16 p.t.
  difference in average disease scores between vehicle and bepridil groups: 1.18 points
[3]; bepridil 3 mg/kg from day 3 p.t., average over days 13-16 p.t.
  average difference in disease scores between vehicle and bepridil groups: −1.11±0.05 points
[3]; [4]
  delay of overt disease onset compared with vehicle: more than 5 days
  average difference in disease scores vs vehicle: 1.66±0.06 points
[3]; bepridil 3 mg/kg s.c. daily from day 0, listed as Bepridil
  average difference in disease scores vs vehicle: −1.66±0.06 points
[3]; bepridil 3 mg/kg s.c. daily from day 0, day 13 p.t.
  reduction of daily average disease score vs vehicle: 1.8 points
[3]; bepridil 3 mg/kg s.c. daily from day 0, day 14 p.t.
  reduction of daily average disease score vs vehicle: 2.0 points
[3]; bepridil 3 mg/kg s.c. daily from day 0, day 15 p.t.
  reduction of daily average disease score vs vehicle: 1.45 points
[3]; bepridil 3 mg/kg s.c. daily from day 0, day 16 p.t.
  reduction of daily average disease score vs vehicle: 1.65 points
[3]; bepridil 3 mg/kg s.c. daily from day 0, day 17 p.t.
  reduction of daily average disease score vs vehicle: 1.60 points
[3]; bepridil 3 mg/kg s.c. daily from day 0, day 18 p.t.
  reduction of daily average disease score vs vehicle: 1.60 points
[3]; bepridil 3 mg/kg s.c. daily from day 0, day 19 p.t.
  reduction of daily average disease score vs vehicle: 1.70 points
[3]; bepridil 3 mg/kg s.c. daily from day 0, day 20 p.t.
  reduction of daily average disease score vs vehicle: 1.5 points

## CCOC(=O)C1=C(C)NC(C)=C(C(=O)OC)C1c1cccc([N+](=O)[O-])c1 (stereo not shown) [nitrendipine, ethyl methyl-1,4-dihydro-2,6-dimethyl-4-(m-nitrophenyl)-3,5-pyridinedicarboxylate]
[3]; nitrendipine 2.5 mg/kg s.c. daily from day 0, average over days 15-20 p.t.
  average amelioration of clinical impairment vs vehicle: −1.77±0.11 points
[3]; nitrendipine 2.5 mg/kg s.c. daily from day 0, day 15 p.t.
  amelioration of clinical impairment (disability score) vs vehicle: 1.5 points
[3]; nitrendipine 2.5 mg/kg s.c. daily from day 0, day 16 p.t.
  amelioration of clinical impairment (disability score) vs vehicle: 1.7 points
[3]; nitrendipine 2.5 mg/kg s.c. daily from day 0, day 17 p.t.
  amelioration of clinical impairment (disability score) vs vehicle: 1.9 points
[3]; nitrendipine 2.5 mg/kg s.c. daily from day 0, day 18 p.t.
  amelioration of clinical impairment (disability score) vs vehicle: 2.25 points
[3]; nitrendipine 2.5 mg/kg s.c. daily from day 0, day 19 p.t.
  amelioration of clinical impairment (disability score) vs vehicle: 1.65 points
[3]; nitrendipine 2.5 mg/kg s.c. daily from day 0, day 20 p.t.
  amelioration of clinical impairment (disability score) vs vehicle: 1.6 points
